The values below come from the NIST ThermoML archive (doi:10.1016/j.jct.2004.08.003).

The conditions of data set [1]: 101.33 kPa, Liquid.
Data set [2] is described as follows: relative permittivity at various frequencies (dimensionless). Conditions: 101.3 kPa, Liquid, Frequency=1 MHz, HP4284A LCR Meter with HP16452A measuring cell.

Molecules are shown by their SMILES. ± gives the expanded uncertainty stated by the source.

By mass density is commonly meant the mass of a sample divided by its volume. Regarding `COCCOCCOCCOC` [2,5,8,11-tetraoxadodecane], the mass density in data set [1] (288.15 K) is recorded as 989.16 ± 0.76 kg/m3; in data set [1] (293.15 K), 984.16 ± 0.78 kg/m3; in data set [1] (298.15 K), 979.61 ± 0.8 kg/m3; in data set [1] (303.15 K), 974.85 ± 0.82 kg/m3; in data set [1] (308.15 K), 970.85 ± 0.84 kg/m3; in data set [1] (318.15 K), 960.67 ± 0.89 kg/m3. In addition, the mass density in data set [1] (328.15 K) came out at 951.06 ± 0.94 kg/m3. The relative permittivity amounted to 7.88 ± 0.16 in data set [2] (288.15 K); 7.73 ± 0.15 in data set [2] (293.15 K); 7.58 ± 0.15 in data set [2] (298.15 K); 7.46 ± 0.15 in data set [2] (303.15 K); 7.33 ± 0.15 in data set [2] (308.15 K); 7.09 ± 0.14 in data set [2] (318.15 K). Besides, the relative permittivity in data set [2] (328.15 K) amounted to 6.88 ± 0.14.

As for `CCCCCCCCCCCC` [dodecane], the mass density in data set [1] (288.15 K) turned out to be 752.44 ± 0.64 kg/m3; in data set [1] (293.15 K), 748.8 ± 0.65 kg/m3; in data set [1] (298.15 K), 745.19 ± 0.65 kg/m3; in data set [1] (303.15 K), 741.57 ± 0.66 kg/m3; in data set [1] (308.15 K), 737.93 ± 0.66 kg/m3; in data set [1] (318.15 K), 730.7 ± 0.67 kg/m3. The mass density in data set [1] (328.15 K) turned out to be 723.32 ± 0.68 kg/m3. Also, the relative permittivity is reported as 2.04 ± 0.04 in data set [2] (288.15 K); 2.03 ± 0.04 in data set [2] (293.15 K); 2.02 ± 0.04 in data set [2] (298.15 K); 2.02 ± 0.04 in data set [2] (303.15 K); 2.01 ± 0.04 in data set [2] (308.15 K); 2 ± 0.04 in data set [2] (318.15 K). Moreover, the relative permittivity in data set [2] (328.15 K) was determined as 1.99 ± 0.04.

With `CCCCCCCCC` [nonane], the mass density in data set [1] (288.15 K) was found to be 721.77 ± 0.6 kg/m3; in data set [1] (293.15 K), 717.76 ± 0.6 kg/m3; in data set [1] (298.15 K), 713.77 ± 0.61 kg/m3; in data set [1] (303.15 K), 709.89 ± 0.61 kg/m3; in data set [1] (308.15 K), 706.2 ± 0.62 kg/m3; in data set [1] (318.15 K), 698.14 ± 0.63 kg/m3. The mass density in data set [1] (328.15 K) turned out to be 690.14 ± 0.64 kg/m3. Moreover, the relative permittivity in data set [2] (288.15 K) is given as 1.99 ± 0.04; in data set [2] (293.15 K), 1.99 ± 0.04; in data set [2] (298.15 K), 1.98 ± 0.04; in data set [2] (303.15 K), 1.97 ± 0.04; in data set [2] (308.15 K), 1.96 ± 0.04; in data set [2] (318.15 K), 1.95 ± 0.04. For the same compound, the relative permittivity in data set [2] (328.15 K) stood at 1.94 ± 0.04.
